Experimental data taken from publication PMC6080781, “ATP competes with PIP2 for binding to gelsolin” (PLoS ONE, 2018).

Columns and labels:
[1] = target: gelsolin; conditions: equilibrium dialysis, high NaCl concentrations; read-out: dissociation constant for gelsolin; cited from earlier work
[2] = target: calcium-free gelsolin; parameters: method as in PMID 10336615; conditions: cited from earlier work
[3] = target: T1, gelsolin (Homo sapiens, UniProt P06396); experiment: Confocal microscopy of Alexa488-labeled gelsolin on PIP2-containing phospholipid vesicles; conditions: 0.5 mM ATP, absence of divalent cations
T1 construct: His tag (cleaved yes); made in house; host or cells: E. coli Rosetta2 (DE3) pLysS, pSY5 plasmid
Protocol: Phospholipid vesicles were prepared by a modified protocol from James H. Morrissey, Dept. of Biochemistry, University of Illinois at Urbana-Champaign, Urbana, IL 61801, USA (https://tf7.org). A mixture of 1% PIP2 (PtdIns-(4,5)-P2(1,2-dipalmitoyl)) (Cayman Chemicals), 79% PC (L-α-phosphatidylcholine) (Sigma-Aldrich) and 20% PS (3-sn-phosphatidyl-L-serine) (Sigma-Aldrich) was dissolved in 20 μM rhodamine 590 N-succinimidyl ester (Sigma-Aldrich) in chloroform. […]
10% (v/v) rhodamine590-filled phospholipid vesicles and 5 μM Alexa488-labeled gelsolin were incubated together and a drop of the mixture was placed on a clean glass slide, which was then covered by and separated from a second slide by a parafilm gasket. […] Fluorescence emission-based imaging was carried out using a Zeiss LSM 510 META Confocal Microscope. The two different fluorophores were detected in two separate channels; Alexa488 (gelsolin) was excited by 477 nm laser light and emission was detected in the 505–530 nm channel, while rhodamine590 (phospholipid vesicles) was excited by 545 nm laser light and emission was detected in the 585–630 nm channel.

[4] = target: T1, gelsolin; experiment: Labeled/unlabeled ATP competition on gelsolin (ATP-N anisotropy); type: binding; conditions: absence of calcium
Protocol: The dissociation constants for ATP and PIP2 were calculated using a hyperbolic model from anisotropy data that had reached saturation during the gelsolin titrations Eq 2: r=rf+(rb−rf)(Kd+[G]+[L]−(Kd+[G]+[L])^2−4[G][L]/2[L]) (2) where rf is the anisotropy of free ligand, rb is the anisotropy of gelsolin-bound ligand, [L] is the total concentration of ligand, Kd is the dissociation constant and [G] is the total concentration of gelsolin. The anisotropy of 0.5 μM ATP-N was measured in the presence of gelsolin concentrations: 0, 0.2, 1.5, 2, 3, 5 and 8 μM. Saturation was evident at 5 μM characterized by an anisotropy value of 0.15 ± 0.006. […]
Supplementary file pone.0201826.s002.pdf: S2 Fig ATP binding to gelsolin under actin polymerization conditions. (A) The calcium-dependent gelsolin binding affinity for ATP under actin polymerization conditions was determined by monitoring the change in ATP-N anisotropy on gelsolin titration at different calcium ion concentrations. Each data point arises from the Kd calculated from a titration similar to Fig 1A. […] (B) The anisotropy of ATP-N (0.5 μM) bound to gelsolin (5 μM) was measured upon titrating with unlabeled ATP in the absence of calcium. […]

[5] = target: T1, gelsolin; experiment: Steady-state fluorescence anisotropy of PIP2-F binding to gelsolin; conditions: 5 μM gelsolin
Protocol: His-tagged human wild-type gelsolin was expressed in E. coli strain Rosetta2 (DE3) pLysS cells from a pSY5 plasmid. […] Traces of calcium were removed by dialysis (2 mM Tris-HCl, 1 mM EGTA, pH 7.4, overnight). Rabbit skeletal muscle actin was prepared from acetone powder (Pel-Freez Biologicals) in a protocol modified from Spudich and Watt. Actin was stored in buffer A (2 mM Tris-HCl, 0.2 mM ATP (ATP disodium trihydrate, Sigma-Aldrich), 0.1 mM CaCl2 (pCa 4), 0.1 mM DTT and 0.005% NaN3, pH 7.4). Alexa Fluor^TM 488 C5 Maleimide (Life Technologies) was used to label cysteine residues of gelsolin based on the manufacturer’s recommendations (Thermo Fisher Scientific).
We used a fluorescent derivative of PIP2 (PtdIns-(4,5)-P2-fluorescein, Cayman Chemicals, NU-10010388, λex = 493 nm, λem = 520 nm, abbreviated as PIP2-F) and a fluorescent derivative of ATP (N^6-(6-amino)hexyl-ATP-ATTO-532, Jena Bioscience, NU-805-532, λex = 532 nm, λem = 553 nm, abbreviated as ATP-N) as probes for the binding of PIP2 and ATP to gelsolin. Fluorescence intensities were measured on a Safire^2 monochromator microplate reader (TECAN) at 22°C. Steady-state fluorescence anisotropy values were determined according to Eq 1 [65], where IVV and IVH, respectively, are the intensities of vertically and horizontally polarized emission on excitation with vertically polarized light, with the correction factor, G, being the ratio of IVH/IVV.
The dissociation constants for ATP and PIP2 were calculated using a hyperbolic model from anisotropy data that had reached saturation during the gelsolin titrations Eq 2: r=rf+(rb−rf)(Kd+[G]+[L]−(Kd+[G]+[L])^2−4[G][L]/2[L]) (2) where rf is the anisotropy of free ligand, rb is the anisotropy of gelsolin-bound ligand, [L] is the total concentration of ligand, Kd is the dissociation constant and [G] is the total concentration of gelsolin. The anisotropy of 0.5 μM ATP-N was measured in the presence of gelsolin concentrations: 0, 0.2, 1.5, 2, 3, 5 and 8 μM. […] The calcium and magnesium sensitivities of ATP binding to gelsolin were characterized by the change in anisotropy of solutions containing 0.5 μM ATP-N in the presence of 5 μM of gelsolin over a range of divalent cation concentrations of pCa 2–12 or pMg 1–12, where pCa and pMg refer to[…]. […] Anisotropy of 0.5 μM or 0.25 μM solutions of PIP2-F in the presence of 5 μM gelsolin was used to probe the changes in binding of the complexes under different calcium, magnesium, salt and ATP conditions.

[6] = Critical micelle concentration by dynamic light scattering; type: physicochemical
Protocol: tested, PIP2-F was free from micelle formation at concentrations of 0.5 µM or below, whereas […]
Methods: The critical micelle concentrations of PIP2 and 1-(1-octadecanoyl-fluorescein-2R-octadecanoylphosphatidyl)inositol-4,5-bisphosphate (Cayman Chemical, abbreviated as PIP2-F) were determined by dynamic light scattering (Huang et al., 2011). Fifty microliter samples were prepared by serial dilution of PIP2 or PIP2-F into a low salt buffer (2 mM Tris-HCl, pH 7.4), or the same buffer supplemented with 100 mM KCl, 1 mM MgCl2, and/or 1 mM CaCl2. After incubation for 30 min, the samples were centrifuged at 15,000 x g for 10 min, transferred into a 384-well clear bottom plate, and light scattering was measured using a Wyatt Dynapro plate reader at room temperature. The concentrations of PIP2-F were subsequently determined by light absorbance at 494 nm with a Nanodrop spectrophotometer. […]
Huang, W., Jiang, D., Wang, X., Wang, K., Sims, C. E., Allbritton, N. L. and Zhang, Q.

[7] = Calcium-dependent fluorescence emission of FURA-2FF; type: binding; conditions: inferred from unchanged FURA-2FF profile with 20 μM PIP2
Protocol: Supplementary file pone.0201826.s005.pdf: S5 Fig Assessment of the effects of calcium and ATP on the binding of ATP-N and PIP2-F to gelsolin. (A) Kds were calculated from the fit data with Eq 2 of gelsolin:PIP2-F binding under different calcium concentrations in the absence or presence of ATP. In the absence of ATP, PIP2-F (0.5 μM) binds to gelsolin, as reflected by thehigh affinity, across a wide range of calcium concentrations. […] (B) In the absence of gelsolin, calcium directly precipitates ATP-N (C, open triangles) with a half-maximum value of 70.4 ± 0.7 μM. Magnesium has no effect on the fluorescence emission of ATP-N either in the absence (M, orange circles) or presence of 10 μM calcium (MC, purple squares). Data were fitted with simple sigmoidal curves. (C) The reported FURA-2FF dissociation constant for calcium ions is 25 μM (A.G. Scientific Inc.). The calcium-dependent fluorescence emission profile of FURA-2FF (2 μM) over pCa range of 5–7 was similar in the presence and absence of 20 μM PIP2, which were fitted with simple sigmoidal curves. […] The measurement was carried out with a Perkin Elmer LS-55 spectrofluorimeter (λex = 340 nm, λem = 505 nm). (PDF) Click here for additional data file.

T1 sequence (P06396 28-782): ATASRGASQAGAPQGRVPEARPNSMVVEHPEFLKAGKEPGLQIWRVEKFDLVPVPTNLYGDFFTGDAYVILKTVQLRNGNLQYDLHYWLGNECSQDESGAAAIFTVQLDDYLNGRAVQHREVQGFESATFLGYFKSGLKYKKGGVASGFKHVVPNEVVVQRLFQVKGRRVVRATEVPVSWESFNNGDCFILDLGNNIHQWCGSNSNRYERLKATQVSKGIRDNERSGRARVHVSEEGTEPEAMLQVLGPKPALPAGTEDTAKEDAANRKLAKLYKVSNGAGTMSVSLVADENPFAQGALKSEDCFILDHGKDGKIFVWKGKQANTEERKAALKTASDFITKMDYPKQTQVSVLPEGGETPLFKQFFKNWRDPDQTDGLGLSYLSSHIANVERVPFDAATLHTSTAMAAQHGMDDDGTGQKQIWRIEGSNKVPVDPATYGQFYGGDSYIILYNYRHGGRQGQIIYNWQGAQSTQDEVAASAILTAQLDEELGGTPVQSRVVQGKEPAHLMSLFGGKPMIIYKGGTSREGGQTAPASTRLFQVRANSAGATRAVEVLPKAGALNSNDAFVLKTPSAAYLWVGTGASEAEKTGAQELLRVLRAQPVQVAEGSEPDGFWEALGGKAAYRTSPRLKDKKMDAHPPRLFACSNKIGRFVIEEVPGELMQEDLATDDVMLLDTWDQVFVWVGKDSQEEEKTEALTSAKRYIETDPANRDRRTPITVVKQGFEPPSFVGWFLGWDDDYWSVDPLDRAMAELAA

Row | Compound | Kd [1] [nM] | Kd ([2]; Gremm and Wegner, read-out: Kd of calcium-free gelsolin for ATP) [nM] | ATP binding to gelsolin ([2]; solutions with more than 10 μM Ca2+ (pCa 5)) | release of gelsolin-Alexa488 from PIP2-containing vesicles [3] | ATP concentration sufficient to remove the gelsolin bound ATP-N ([4]; 0.5 μM ATP-N, 5 μM gelsolin) [µM] | Kd ([4]; 50 mM KCl, 1 mM MgCl2 (actin polymerizing salt), competition with ATP-N) [nM] | effect of ATP on PIP2-F anisotropy ([5]; 0.5 mM ATP, 0.25 μM PIP2-F, 100 mM K+, 1 mM Mg2+, entire calcium range, absence and presence of 50 μM actin) | effect of ATP on the gelsolin/PIP2-F complex ([5]; 0.2 or 0.5 mM ATP, 0.5 μM PIP2-F) | CMC of PIP2 ([6]; 100 mM KCl and 1 mM MgCl2, nominal concentrations) [µM] | CMC of PIP2 ([6]; 100 mM KCl, nominal concentrations) [µM] | CMC of PIP2 ([6]; absence of cations, nominal concentrations) [µM] | CMC of PIP2 ([6]; calcium in the buffer, considered an overestimation) | Kd [7] [nM]
1 | Nc1ncnc2c1ncn2[C@@H]1O[C@H](COP(=O)(O)OP(=O)(O)OP(=O)([O-])[O-])[C@@H](O)[C@H]1O.O.O.O.[Na+].[Na+] [ATP, ATP disodium trihydrate] | 280 | 32000 | No ATP binding to gelsolin is detectable | the majority of gelsolin-Alexa488 was released from the vesicles | 50 | 2200 | almost complete loss of PIP2-F anisotropy | complete dissociation of the gelsolin/PIP2-F complex |  |  |  |  | 
2 | phosphatidylinositol 4,5-bisphosphate [PIP2] |  |  |  |  |  |  |  |  | < 1 | 2 | 20 | ~ 10 μM | ≥ 25000
